Test results published in US20130067616A1, “Plant Defensive Peptides” (priority 2010, published 2013).
Ends that are not written are not given here.

Legend:
Rhizoctonia solani = assay: Inhibitory concentrations of antimicrobial peptides and antibiotics against Rhizoctonia solani in vitro; type: cell-based; parameters: MIC, minimum concentration that completely inhibits growth of fungal cells: unit: μM; conditions: for IC50: ± std, read-out: IC50, concentration that inhibits 50% growth of fungal cultures vs control
[1] = test system: phytopathogenic bacteria and fungi; assay: Antibacterial and antifungal resistance of Arabidopsis expressing antimicrobial peptides; type: in vivo; conditions: carbonic anhydrase promoter, rice endochitinase signal peptide
Text: Including the acidic peptide is thus a preferred aspect of practicing the invention, although it may not be required. Tagging the βPTH precursor with EGFP greatly impaired antimicrobial activity in the mature peptide, even though EGFP was fused to the C-terminus of the acidic protein, the portion that was post-translationally cleaved.

fungal cultures = conditions: literature values (Thevissen et al. 1996; Oard et al. 2004); read-out: IC50, concentration of a peptide that inhibits 50% growth of fungal cultures relative to control; cited from earlier work
[2] = test system: Neurospora crassa and Saccharomyces cerevisiae; parameters: dose or concentration left out as unconfirmed; conditions: concentration as low as; cited from earlier work

CC[C@H](C)[C@H](NC(=O)CN)C(=O)NCC(=O)N[C@@H](C)C(=O)N[C@H](C(=O)N[C@@H](CC(C)C)C(=O)N[C@@H](CCCCN)C(=O)N[C@H](C(=O)N[C@@H](CC(C)C)C(=O)N[C@H](C(=O)N[C@H](C(=O)NCC(=O)N[C@@H](CC(C)C)C(=O)N1CCC[C@H]1C(=O)N[C@@H](C)C(=O)N[C@@H](CC(C)C)C(=O)N[C@H](C(=O)N[C@@H](CO)C(=O)N[C@@H](Cc1c[nH]c2ccccc12)C(=O)N[C@H](C(=O)N[C@@H](CCCCN)C(=O)N[C@@H](CCCNC(=N)N)C(=O)N[C@@H](CCCCN)C(=O)N[C@@H](CCCNC(=N)N)C(=O)N[C@@H](CCC(N)=O)C(=O)N[C@@H](CCC(N)=O)C(N)=O)[C@@H](C)CC)[C@@H](C)CC)[C@@H](C)O)[C@@H](C)O)C(C)C)C(C)C [Melittin]
MIC, minimum concentration that completely inhibits growth of fungal cells (Rhizoctonia solani): 13.1 µmol
IC50 (Rhizoctonia solani): 7.1 ± 0.6 µM

C[C@@H]([C@H](N)C(=O)N[C@H](C(=O)O)[C@H]1O[C@@H](n2ccc(=O)[nH]c2=O)[C@H](O)[C@@H]1O)[C@H](O)c1ccc(O)cn1 [Nikkomycin Z]
MIC, minimum concentration that completely inhibits growth of fungal cells (Rhizoctonia solani): 4.5 µmol
IC50 (Rhizoctonia solani): 0.86 ± 0.1 µM

C[C@@H]1[C@H](O)[C@@H](C)/C=C/C=C/CC/C=C/C=C/C=C/C=C/C(O[C@H]2O[C@H](C)[C@@H](O)[C@H](N)[C@@H]2O)CC2O[C@](O)(CC(O)C(O)CCC(O)CC(O)CC(O)CC(=O)O[C@H]1C)CC(O)C2C(=O)O (some centres unmarked) [Nystatin]
MIC, minimum concentration that completely inhibits growth of fungal cells (Rhizoctonia solani): 5.2 µmol
IC50 (Rhizoctonia solani): 1.1 ± 0.3 µM

Cecropin B (KWKVFKKIEKMGRNIRNGIVKAGPAIAVLGEAKAL; ends and bridges not checked; UniProt P01508 27-61, looked up) [natural 35-residue peptide from the Cecropia moth]
Antimicrobial resistance in vivo of Arabidopsis expressing the peptide [1]: only antibacterial activity, not antifungal activity
MIC, minimum concentration that completely inhibits growth of fungal cells (Rhizoctonia solani): 9.8 µmol
IC50 (Rhizoctonia solani): 4.6 ± 0.3 µM

Magainin II
MIC, minimum concentration that completely inhibits growth of fungal cells (Rhizoctonia solani): 30.2 µmol
IC50 (Rhizoctonia solani): 15.7 ± 0.9 µM

α-Hordothionin (KSCCRSTLGRNCYNLCRVRGAQKLCAGVCRCKLTSSGKCPTGFPK) [barley seed-specific thionin, GenBank X05901]
IC50 (fungal cultures): 1 µM

α-purothionin
Inhibition of fungal growth [2]: up to 50%

β-Purothionin [βPTH]
Antimicrobial resistance in vivo of Arabidopsis expressing the peptide [1]: the greatest antibacterial and antifungal resistance
MIC, minimum concentration that completely inhibits growth of fungal cells (Rhizoctonia solani): 5.02 µmol
IC50 (Rhizoctonia solani): 1.14 ± 0.4 µM
IC50 (fungal cultures): 1.1 µM
